Experimental data taken from patent US20100086931A1, “METHOD FOR ASSAYING ACTION OF ANTITUMOR AGENT USING DECREASE IN GENE EXPRESSION LEVEL AS INDEX” (Eisai R&D Management Co., Ltd., priority 2007, published 2010).

Test system: human colon carcinoma cell strain WiDr
Test: Microarray analysis (Human Genome U133 plus 2.0 array) of mRNA expression in WiDr cells treated with compound A
Assay type: cell-based
Conditions: 14 nM, 6 h, ratio to control
Method: Microarray analysis (Human Genome U133 plus 2.0 array: Affymetrix) was carried out using RNA purified from human colon carcinoma cell strain WiDr treated with 2.8 nM and 14 nM of (8E,12E,14E)-7-((4-Cycloheptylpiperazin-1-yl)carbonyl)oxy-3,6,16,21-tetrahydroxy-6,10,12,16,20-pentamethyl-18,19-epoxytricosa-8,12,14-trien-11-olide (hereinafter also referred to as “compound A”) for six hours.
WiDr cells were first suspended in RPMI1640 medium (containing 10% FBS, penicillin, and streptomycin) and seeded in a 10 cm dish (2×10^6 cells/dish). After an overnight culture in an incubator with 5% carbon dioxide gas at 37° C., the medium was changed with medium containing 2.8 nM and 14 nM of compound A or containing vehicle alone. After cultured additional six hours, TRI reagent (SIGMA) was added to cells, and the cells were harvested. RNA was purified in accordance with the protocol of TRI reagent, followed by further purification with RNeasy (QIAGEN). Absorbance at 260 nm was measured to quantify an amount of RNA.
Subsequently, single stranded cDNA synthesis, double stranded cDNA synthesis, biotin-labeled cRNA synthesis, and cRNA fragmentation in order were carried out from 5-10 μg (WiDr 10 μg, PBMC 5 μg) of total RNA from the control cells and the treated cells, by using One-Cycle Target Labeling and Control Reagents (Affymetrix). cRNA probe was used for hybridization with Human Genome U133 Plus 2.0 Array (Affymetrix). The array was then washed and stained, and luminescence intensity was measured by a scanner.
The RMA method was applied to 33 of .cel files obtained in the microarray experiment and log signal intensity at a gene level normalized with log signal intensity at a probe level was obtained. By subtracting the mean between control 1 and control 3 from the mean between log signal intensity 1 and log signal intensity 3 for each case, the log signal intensity was converted into a log signal ratio to the control. A t-test was conducted between each log signal intensity and control, and candidate genes were narrowed down in the basis of a p-value, a log signal ratio, and a signal value. Specifically, genes showing that the P value was 5% or less; the expression level in the untreated (control) is 100 or more by signal value; and the expression level when treated with both 2.8 nM and 14 nM of compound A is, compared to the control, 25% or less, were picked out. The software used is R2.2.1 (http://www.r-project.org/), affy package 1.8.1 (http://www.bioconductor.org).
Genes showing that, by the treatment with compound A, the P value was 5% or less; the expression level in the untreated (control) is 100 or more by signal value; and the expression level when treated with both 2.8 nM and 14 nM of compound A is, compared to the control, 25% or less, and results thereof were shown in Table 1. Probe ID used in Table 1 represents Human Genome U133 Plus 2.0 Array Probeset ID. In Table 1, for each gene evaluated, gene name (Gene Name), abbreviated name (Gene Symbol), accession number (Accession), alias name (Synonym), Probe set number in Human Genome U133 Plus 2.0 Array (Human Genome U133 Plus 2.0 Array Probeset ID), the expression level upon the six-hour treatment with 2.8 nM of E7107 (2.8 nM (6 h)), and the expression level upon the six-hour treatment with 14 nM of E7107 (14 nM (6 h)) were respectively shown.

CCC(O)C(C)C1OC1CC(C)(O)/C=C/C=C(\C)C1OC(=O)CC(O)CCC(C)(O)C(OC(=O)N2CCN(C3CCCCCC3)CC2)/C=C/C1C (stereo not drawn) [E7107, (8E,12E,14E)-7-((4-Cycloheptylpiperazin-1-yl)carbonyl)oxy-3,6,16,21-tetrahydroxy-6,10,12,16,20-pentamethyl-18,19-epoxytricosa-8,12,14-trien-11-olide]
ADPRHL2 mRNA expression level (223097_at): 0.20 | ANGEL2 mRNA expression level (221825_at): 0.17 | ARMC8 mRNA expression level (203486_s_at): 0.12 | ATP2A2 mRNA expression level (212361_s_at): 0.17 | ATP2B1 mRNA expression level (212930_at): 0.10 | ATP6V0A2 mRNA expression level (205704_s_at): 0.15 | BPTF mRNA expression level (232909_s_at): 0.05 | C1orf63 mRNA expression level (209006_s_at): 0.19 | C1orf79 mRNA expression level (223774_at): 0.14 | C1orf82 mRNA expression level (222893_s_at): 0.19 | C5orf28 mRNA expression level (219029_at): 0.05 | C6orf136 mRNA expression level (227455_at): 0.15 | C7orf23 mRNA expression level (204215_at): 0.04 | C7orf36 mRNA expression level (223433_at): 0.15 | C7orf49 mRNA expression level (220949_s_at): 0.23 | C12orf32 mRNA expression level (225837_at): 0.17 | C15orf40 mRNA expression level (1552310_at): 0.19 | C17orf80 mRNA expression level (223351_at): 0.21 | C20orf112 mRNA expression level (225224_at): 0.09 | CARD10 mRNA expression level (210026_s_at): 0.13 | CASC5 mRNA expression level (228323_at): 0.14 | CCDC14 mRNA expression level (225017_at): 0.17 | CCNE2 mRNA expression level (205034_at): 0.05 | CDC6 mRNA expression level (203967_at): 0.08 | CDC7 mRNA expression level (204510_at): 0.13 | CDNA FLJ34214 fis, clone FCBBF3021807 mRNA expression level (227087_at): 0.17 | CLDND1 mRNA expression level (208925_at): 0.09 | CLIP1 mRNA expression level (201975_at): 0.12 | DAPK1 mRNA expression level (203139_at): 0.07 | DNAJC16 mRNA expression level (212908_at): 0.15 | E2F7 mRNA expression level (228033_at): 0.06 | EHBP1 mRNA expression level (212653_s_at): 0.05 | ELL3 mRNA expression level (219518_s_at): 0.20 | ERCC3 mRNA expression level (202176_at): 0.22 | EVI1 mRNA expression level (226420_at): 0.07 | FAM86C mRNA expression level (65585_at): 0.22 | FANCL mRNA expression level (218397_at): 0.21 | FBXL5 mRNA expression level (209004_s_at): 0.05 | FCHO2 mRNA expression level (228220_at): 0.11 | FGF19 mRNA expression level (223761_at): 0.18 | FKSG44 mRNA expression level (227964_at): 0.06 | FLJ20628 mRNA expression level (221229_s_at): 0.25 | FRY mRNA expression level (204072_s_at): 0.10 | Full-length cDNA clone CS0DL007YI24 of B cells (Ramos cell line) mRNA expression level (226648_at): 0.12 | GRHL1 mRNA expression level (222830_at): 0.18 | HDAC4 mRNA expression level (204225_at): 0.21 | INTS7 mRNA expression level (222250_s_at): 0.20 | IREB2 mRNA expression level (225892_at): 0.03 | IXL mRNA expression level (225708_at): 0.14 | JAGN1 mRNA expression level (223104_at): 0.09 | JUB mRNA expression level (225806_at): 0.09 | KCNE3 mRNA expression level (227647_at): 0.16 | KIAA0323 mRNA expression level (212355_at): 0.19 | KIAA0776 mRNA expression level (212633_at): 0.15 | KIAA0859 mRNA expression level (212405_s_at): 0.09 | KIF2C mRNA expression level (211519_s_at): 0.12 | KIF21A mRNA expression level (226003_at): 0.09 | KIN mRNA expression level (205664_at): 0.19 | KLHL12 mRNA expression level (225068_at): 0.11 | LIPG mRNA expression level (219181_at): 0.11 | LOC51315 mRNA expression level (218303_x_at): 0.07 | LOC124512 mRNA expression level (225808_at): 0.16 | MASTL mRNA expression level (228468_at): 0.11 | MCM10 mRNA expression level (220651_s_at): 0.06 | METTL3 mRNA expression level (209265_s_at): 0.19 | METTL4 mRNA expression level (219698_s_at): 0.18 | MKRN1 mRNA expression level (201285_at): 0.22 | MLL2 mRNA expression level (227527_at): 0.10 | MND1 mRNA expression level (223700_at): 0.14 | MYOHD1 mRNA expression level (225947_at): 0.24 | NCOA5 mRNA expression level (225145_at): 0.17 | NIN mRNA expression level (225921_at): 0.21 | NOC3L mRNA expression level (218889_at): 0.15 | NPC1 mRNA expression level (202679_at): 0.20 | NR2C1 mRNA expression level (204791_at): 0.13 | NUPL1 mRNA expression level (223984_s_at): 0.12 | NUPL2 mRNA expression level (204003_s_at): 0.21 | ORC5L mRNA expression level (204957_at): 0.12 | PAXIP1 mRNA expression level (212825_at): 0.08 | PCGF1 mRNA expression level (210023_s_at): 0.18 | PHACTR4 mRNA expression level (226823_at): 0.15 | PHF20L1 mRNA expression level (226942_at): 0.10 | PIK3C3 mRNA expression level (204297_at): 0.22 | PLEKHA5 mRNA expression level (220952_s_at): 0.06 | PMS1 mRNA expression level (213677_s_at): 0.17 | POLD3 mRNA expression level (212836_at): 0.09 | POLR3E mRNA expression level (222490_at): 0.10 | PPM1B mRNA expression level (209296_at): 0.07 | PPWD1 mRNA expression level (213483_at): 0.14 | RAD54B mRNA expression level (219494_at): 0.10 | RBBP6 mRNA expression level (212783_at): 0.12 | RBM17 mRNA expression level (224780_at): 0.13 | RBMS1 mRNA expression level (209868_s_at): 0.11 | REPS1 mRNA expression level (224366_s_at): 0.12 | RFC4 mRNA expression level (204023_at): 0.04 | RIF1 mRNA expression level (226821_at): 0.07 | RPS6KC1 mRNA expression level (218909_at): 0.22 | SFXN1 mRNA expression level (230069_at): 0.06 | SHPRH mRNA expression level (226366_at): 0.08 | SLC17A5 mRNA expression level (223441_at): 0.18 | SLC25A19 mRNA expression level (223222_at): 0.22 | SLC37A1 mRNA expression level (218928_s_at): 0.25 | SMEK2 mRNA expression level (226230_at): 0.14 | SMUG1 mRNA expression level (218685_s_at): 0.24 | STAMBPL1 mRNA expression level (227606_s_at): 0.14 | STXBP3 mRNA expression level (203310_at): 0.14 | SYTL2 mRNA expression level (232914_s_at): 0.24 | TAF4 mRNA expression level (213090_s_at): 0.09 | TMEM177 mRNA expression level (218897_at): 0.22 | TNS3 mRNA expression level (217853_at): 0.07 | TRIM31 mRNA expression level (210159_s_at): 0.21 | TRIP4 mRNA expression level (203732_at): 0.23 | TSEN2 mRNA expression level (219581_at): 0.11 | TTC4 mRNA expression level (46167_at): 0.09 | TUBGCP3 mRNA expression level (203690_at): 0.11 | Transcribed locus mRNA expression level (230098_at): 0.13 | Transcribed locus mRNA expression level (230177_at): 0.22 | Transcribed locus mRNA expression level (235609_at): 0.17 | Transcribed locus, moderately similar to XP_518244.1 mRNA expression level (235046_at): 0.10 | Transcribed locus, strongly similar to NP_002194.1 integrin alpha 2 precursor mRNA expression level (227314_at): 0.12 | Transcribed locus, strongly similar to NP_689873.1 mRNA expression level (228638_at): 0.12 | UNC50 mRNA expression level (203583_at): 0.06 | WBP4 mRNA expression level (203598_s_at): 0.17 | WDR26 mRNA expression level (218107_at): 0.16 | WDR67 mRNA expression level (214061_at): 0.08 | ZC3HAV1L mRNA expression level (228280_at): 0.04 | ZCCHC6 mRNA expression level (220933_s_at): 0.25 | ZKSCAN1 mRNA expression level (214670_at): 0.15 | ZMIZ1 mRNA expression level (212124_at): 0.05 | ZNF518 mRNA expression level (204291_at): 0.12 | mRNA expression level, probeset 228106_at (gene name not given): 0.18 | mRNA expression level, probeset 235436_at (gene name not given): 0.19
